Data reported in US9409905B2, “Antibacterial compounds and methods for use” (PTC THERAPEUTICS, INC., priority 2011, dated 2016).
In brackets after ≈: the same amount, converted by molar mass.

What was measured:
[1] = tested on: Haemophilus influenzae (H. influenzae) 49247; assay: Antibacterial activity, MIC (Table 6); assay type: cell-based
Text: (§1) The antibacterial activity from a microbroth dilution method may be presented as the minimum inhibitory concentration (MIC in μg/mL). The MIC value is the lowest concentration of drug which prevents macroscopically visible growth under test conditions.
(§2) Antibacterial activity of test compounds against the Gram-negative bacteria Haemophilus influenzae (H. influenzae) 49247 is shown in Table 6, Moraxella catarrhalis (M. catarrhalis) 25238 is shown in Table 7 and Neisseria meningitidis (N. meningitidis) 13090 is shown in Table 8.

[2] = tested on: Moraxella catarrhalis (M. catarrhalis) 25238; assay: Antibacterial activity, MIC (Table 7); assay type: cell-based
Text: as §1, §2

[3] = tested on: Staphylococcus aureus (S. aureus) 29213; assay: Antibacterial activity, microbroth dilution MIC (Table 1); assay type: cell-based; details: microbroth dilution, Gram-positive S. aureus 29213, read-out: MIC, 29213
Method in brief: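 Values are MICs (μg/mL): the smallest drug amount at which macroscopically visible bacterial growth is absent under assay conditions, from a microdilution method in broth.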

[4] = tested on: Escherichia coli (E. coli) BAS849; assay: as above; assay type: cell-based; details: microbroth dilution, super sensitive Gram-negative E. coli BAS849, read-out: MIC, BAS849
Method in brief: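 Broth microdilution; endpoint = no macroscopic growth; value = lowest inhibiting concn, μg/mL.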

[5] = tested on: Acinetobacter baumannii (A. baumannii) BAA747; assay: Antibacterial activity, MIC (Table 4); assay type: cell-based; details: A. baumannii BAA747, read-out: MIC, BAA747
Method in brief: (§3)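 Values are MICs in μg/mL, read as the lowest compound concentration at which no growth is visible by eye. They come from a microbroth dilution method.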

[6] = tested on: Klebsiella pneumoniae (K. pneumoniae) 35657; assay: Antibacterial activity, MIC (Table 4); assay type: cell-based; details: K. pneumoniae 35657, read-out: MIC, 35657
Method in brief: as §3

E. coli ELZ4251 = assay: Antibacterial activity, MIC, multi-drug resistant clinical isolate (Table 3); assay type: cell-based; details: Escherichia coli
Method in brief: (§4)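 Growth inhibition is measured by microbroth dilution, and the minimum inhibitory concentration in μg/mL corresponds to the lowest drug level that prevents visible bacterial growth.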

E. coli ELZ4000 = assay: as above; assay type: cell-based; details: Escherichia coli, ELZ4000, read-out: MIC ELZ4000
Method in brief: as §4

[7] = tested on: Neisseria meningitidis (N. meningitidis) 13090; assay: Antibacterial activity, MIC (Table 8); assay type: cell-based
Text: as §1, §2

E. coli 25922 = assay: Antibacterial activity, microbroth dilution MIC (Table 1); assay type: cell-based, Escherichia coli; details: Escherichia coli; microbroth dilution; control Gram-negative E. coli 25922 strain; read-out: MIC, 25922
Method in brief: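 Potency is reported as minimum inhibitory concentration in μg/mL, determined by broth microdilution as the lowest level of compound that stops growth visible to the eye.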

K. pneumoniae MXX1232 = assay: Antibacterial activity, MIC, resistant strain (Table 4); assay type: cell-based; details: Klebsiella pneumoniae, MXX1232; resistant K. pneumoniae MMX1232, multi-drug resistant clinical isolate; read-out: MIC, MMX1232
Method in brief: as §3

A. baumannii MXX2240 = assay: as above; assay type: cell-based; details: Acinetobacter baumannii, MXX2240; resistant A. baumannii MMX2240, multi-drug resistant clinical isolate; read-out: MIC, MMX2240
Method in brief: as §3

[8] = tested on: Pseudomonas aeruginosa (P. aeruginosa) 27853; assay: Antibacterial activity, MIC (Table 5); assay type: cell-based; details: P. aeruginosa 27853, read-out: MIC, 27853
Method in brief: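 MIC in μg/mL from broth microdilution; endpoint is the lowest drug level giving no visible growth.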

E. coli LZ3111 = assay: Antibacterial activity, MIC, quinolone resistant strain (Table 2); assay type: cell-based; details: Escherichia coli, LZ3111, read-out: MIC LZ3111
Method in brief: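 Lowest concentration giving no macroscopically visible growth was taken as the MIC (μg/mL) after microbroth dilution testing.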

| Compound | MIC [1] [µg/mL] | MIC [2] [µg/mL] | MIC [3] [µg/mL] | MIC [4] [µg/mL] | MIC [5] [µg/mL] | MIC [6] [µg/mL] | MIC (E. coli ELZ4251) [µg/mL] | MIC (E. coli ELZ4000) [µg/mL] | MIC [7] [µg/mL] | MIC (E. coli 25922) [µg/mL] | MIC (K. pneumoniae MXX1232) [µg/mL] | MIC (A. baumannii MXX2240) [µg/mL] | MIC [8] [µg/mL] | MIC (E. coli LZ3111) [µg/mL] |
| --- | --- | --- | --- | --- | --- | --- | --- | --- | --- | --- | --- | --- | --- | --- |
| CCc1c(-c2ccc3c(c2)cc(CN(CC)CC)n3C)[nH]c(=O)c(C(=O)O)c1O [Cpd 167, 6-(2-((diethylamino)methyl)-1-methyl-1H-indol-5-yl)-5-ethyl-4-hydroxy-2-oxo-1,2-dihydropyridine-3-carboxylic acid] | < 1 | < 1 | 12.5 to 150 (≈ 31.4 to 377 µM) | < 1 | 1 to 3.5 (≈ 2.52 to 8.81 µM) | 1 to 3.5 (≈ 2.52 to 8.81 µM) | 3.5 to 12.5 (≈ 8.81 to 31.4 µM) | 12.5 to 150 (≈ 31.4 to 377 µM) | < 1 | < 1 | 12.5 to 150 (≈ 31.4 to 377 µM) | 3.5 to 12.5 (≈ 8.81 to 31.4 µM) | 12.5 to 150 (≈ 31.4 to 377 µM) | 3.5 to 12.5 (≈ 8.81 to 31.4 µM) |
| CCc1c(-c2ccc3c(c2)cc(CN2CCOCC2)n3C)[nH]c(=O)c(C(=O)O)c1O [Cpd 168, 5-ethyl-4-hydroxy-6-(1-methyl-2-(morpholinomethyl)-1H-indol-5-yl)-2-oxo-1,2-dihydropyridine-3-carboxylic acid] | < 1 | < 1 | 1 to 3.5 (≈ 2.43 to 8.51 µM) | < 1 | 1 to 3.5 (≈ 2.43 to 8.51 µM) | 1 to 3.5 (≈ 2.43 to 8.51 µM) | 12.5 to 150 (≈ 30.4 to 365 µM) | 12.5 to 150 (≈ 30.4 to 365 µM) | < 1 | 1 to 3.5 (≈ 2.43 to 8.51 µM) | 12.5 to 150 (≈ 30.4 to 365 µM) | 3.5 to 12.5 (≈ 8.51 to 30.4 µM) | 12.5 to 150 (≈ 30.4 to 365 µM) | 3.5 to 12.5 (≈ 8.51 to 30.4 µM) |
| CCc1c(-c2ccc3c(c2)cc(CN2CCN(C)CC2)n3C)[nH]c(=O)c(C(=O)O)c1O [Cpd 169, 5-ethyl-4-hydroxy-6-(1-methyl-2-((4-methylpiperazin-1-yl)methyl)-1H-indol-5-yl)-2-oxo-1,2-dihydropyridine-3-carboxylic acid] | 1 to 3.5 (≈ 2.36 to 8.24 µM) | < 1 | 3.5 to 12.5 (≈ 8.24 to 29.4 µM) | < 1 | 1 to 3.5 (≈ 2.36 to 8.24 µM) | 1 to 3.5 (≈ 2.36 to 8.24 µM) | 12.5 to 150 (≈ 29.4 to 353 µM) | 12.5 to 150 (≈ 29.4 to 353 µM) | < 1 | 1 to 3.5 (≈ 2.36 to 8.24 µM) | 12.5 to 150 (≈ 29.4 to 353 µM) | 12.5 to 150 (≈ 29.4 to 353 µM) | 12.5 to 150 (≈ 29.4 to 353 µM) | 3.5 to 12.5 (≈ 8.24 to 29.4 µM) |
